Assay results reported in patent US10111435B2, “Herbicidal compositions containing N-(1,3,4-oxadiazol-2-yl)-aryl carboxylic acid amides” (BAYER CROPSCIENCE AKTIENGESELLSCHAFT, priority 2013, dated 2018).
Where two headings read alike, the source gives them in different places.

Tests used:
Assay type in all cases: in vivo
Eleusine indica (ELEIN) = test: greenhouse post-emergence herbicidal efficacy against ELEIN; conditions: for pest or weed control at […]: 2.5 g of a.i./ha; for pest or weed control at 10 g/ha: 10 g of a.i./ha; for pest or weed control at 300 g/ha / pest or weed control at 1200 g/ha: read-out: Efficacy
Procedure: (§1) All trials whose results are shown were conducted in a greenhouse by the methodology specified below. The effect of the inventive herbicidal compositions was examined on the following harmful plants 14 and 21 days after application:
(§2) Echinochloa crus-galli (ECHCG), Eleusine indica (ELEIN), Setaria viridis (SETVI), Amaranthus retroflexus (AMARE), Chenopodium album (CHEAL), Kochia scoparia (KCHSC), Solanum nigrum (SOLNI), Avena fatua (AVEFA), Bromus sterilis (BROST), Lolium multiflorum (LOLMU), Phalaris minor (PHAMI), Poa annua (POAAN), Galium aparine (GALAP), Matricaria inodora (MATIN) and Polygonum convolvulus (POLCO).
(§3) The harmful plant seeds were sown in pots (diameter 8 cm) with sandy loam soil and germinated under optimal conditions. The inventive herbicidal compositions or the active ingredients alone were applied post-emergence to the planted pots with a spray volume of 300 L/ha. The trial was conducted in a greenhouse under optimum growth conditions. The herbicidal effects were assessed visually by comparison of untreated and treated plants. The percentages mean: 0%=no effects, 100%=the plants die off completely). The percentages are used to calculate interactions between individual treatments and combination treatments according to S. R. Colby, Weeds 15, pages 20 to 22 (1967).
(§4) The abbreviations mean: • a.i.=active ingredient • E^C=expected value according to Colby (E^C=A+B−A×B/100) • Diff: =difference (%) of measured value from expected value (%) (measured value minus expected value)
(§5) Assessment: • measured value E is greater than E^C:->synergism (+ diff.) • measured value E equals E^C:->additive effect • measured value E is smaller than E^C:->antagonism(− diff.)

Galium aparine (GALAP) = test: greenhouse post-emergence herbicidal efficacy against GALAP
Summary of the method: (§6)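 Seeds were sown in 8 cm pots of sandy loam and germinated under optimal conditions. Compositions or single active ingredients were sprayed post-emergence at 300 L/ha in the greenhouse. Visual % damage versus untreated plants (0% none, 100% complete kill) was scored 14 and 21 days after application, with Colby expected values (E^C=A+B−A×B/100) used to judge synergism.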

[1] = system: Lolium multiflorum (LOLMU); test: greenhouse post-emergence herbicidal efficacy against LOLMU
Summary of the method: as §6

[2] = system: Amaranthus retroflexus (AMARE); test: greenhouse post-emergence herbicidal efficacy against AMARE
Procedure: as §1, §2, §3, §4, §5

[3] = system: Matricaria inodora (MATIN); test: greenhouse post-emergence herbicidal efficacy against MATIN
Summary of the method: as §6

[4] = system: Echinochloa crus-galli (ECHCG); test: greenhouse post-emergence herbicidal efficacy against ECHCG
Procedure: as §1, §2, §3, §4, §5

DIGSA = test: greenhouse post-emergence herbicidal efficacy against DIGSA
Procedure: as §1, §3, §4, §5

Bromus sterilis (BROST) = test: greenhouse post-emergence herbicidal efficacy against BROST
Summary of the method: as §6

Poa annua (POAAN) = test: greenhouse post-emergence herbicidal efficacy against POAAN
Summary of the method: as §6

Setaria viridis (SETVI) = test: greenhouse post-emergence herbicidal efficacy against SETVI
Procedure: as §1, §2, §3, §4, §5

[5] = system: Chenopodium album (CHEAL); test: greenhouse post-emergence herbicidal efficacy against CHEAL
Procedure: as §1, §2, §3, §4, §5

[6] = system: Polygonum convolvulus (POLCO); test: greenhouse post-emergence herbicidal efficacy against POLCO
Summary of the method: as §6

Phalaris minor (PHAMI) = test: greenhouse post-emergence herbicidal efficacy against PHAMI
Summary of the method: as §6

Solanum nigrum (SOLNI) = test: greenhouse post-emergence herbicidal efficacy against SOLNI
Procedure: as §1, §2, §3, §4, §5

Avena fatua (AVEFA) = test: greenhouse post-emergence herbicidal efficacy against AVEFA
Summary of the method: as §6

[7] = 14 days after application, 0.1 g of a.i./ha
[8] = 14 days after application, 0.4 g of a.i./ha
[9] = 21 days after application, g of a.i./ha: A1-14 2.5, pyrasulfotole 25
[10] = 21 days after application, g of a.i./ha: A1-14 10, pyrasulfotole 25
[11] = 14 days after application, 2.5 g of a.i./ha
[12] = 14 days after application, 10 g of a.i./ha
[13] = 21 days after application, g of a.i./ha: A1-14 2.5, pyrasulfotole 100
[14] = 21 days after application, 0.4 g of a.i./ha
[15] = 21 days after application, g of a.i./ha: A1-14 10, pyrasulfotole 100
[16] = 14 days after application, 2 g of a.i./ha
[17] = 21 days after application, 2 g of a.i./ha
[18] = 21 days after application, g of a.i./ha: A1-36 2.5, flurtamone 80
[19] = 21 days after application, g of a.i./ha: A1-36 10, flurtamone 80
[20] = 21 days after application, g of a.i./ha: A1-36 10, flurtamone 320
[21] = 21 days after application, 0.5 g of a.i./ha
[22] = 21 days after application, g of a.i./ha: A1-36 2.5, flurtamone 320
[23] = 14 days after application, 0.5 g of a.i./ha
[24] = 14 days after application, 100 g of a.i./ha
[25] = 14 days after application, 400 g of a.i./ha
[26] = 21 days after application, 400 g of a.i./ha
[27] = 21 days after application, 100 g of a.i./ha
[28] = Eleusine indica, post-emergence, 336 h, 14 days after application
[29] = Eleusine indica, post-emergence, 504 h, 21 days after application
[30] = 21 days after application, 10 g of a.i./ha
[31] = 21 days after application, 2.5 g of a.i./ha
[32] = Eleusine indica, post-emergence, 336 h
[33] = Eleusine indica, post-emergence, 504 h
[34] = 14 days after application, 300 g of a.i./ha
[35] = 14 days after application, 1200 g of a.i./ha
[36] = 21 days after application, 300 g of a.i./ha
[37] = 21 days after application, 1200 g of a.i./ha

Cc1nnc(NC(=O)c2ccc(C(F)(F)F)c([S+](C)[O-])c2Cl)o1 (stereo not shown) [A1-14]
60%: Efficacy [3, 12]
50%: Efficacy [3, 11]
0%: Efficacy (Eleusine indica (ELEIN); [7]) | Efficacy (Galium aparine (GALAP); [9]) | Efficacy [1, 11] | Efficacy [1, 12] | Efficacy [2, 7] | Efficacy [4, 8] | Efficacy [4, 14] | Efficacy (DIGSA; [8]) | Efficacy (DIGSA; [14]) | Efficacy (Bromus sterilis (BROST); [11]) | Efficacy (Bromus sterilis (BROST); [15]) | Efficacy (Poa annua (POAAN); [9]) | Efficacy (Poa annua (POAAN); [13]) | Efficacy (Setaria viridis (SETVI); [7]) | Efficacy (Setaria viridis (SETVI); [14]) | Efficacy [5, 7] | Efficacy ([5]; 21 days after application, 0.1 g of a.i./ha) | Efficacy [6, 9] | Efficacy [6, 13] | Efficacy (Phalaris minor (PHAMI); [11]) | Efficacy (Phalaris minor (PHAMI); [9]) | Efficacy (Phalaris minor (PHAMI); [13])
30%: Efficacy [3, 13]
20%: Efficacy (Eleusine indica (ELEIN); [8]) | Efficacy [6, 11] | Efficacy [6, 12]
15%: Efficacy (Galium aparine (GALAP); [10])
3%: Efficacy (Bromus sterilis (BROST); [12]) | Efficacy [6, 10] | Efficacy [6, 15]
25%: Efficacy (Phalaris minor (PHAMI); [12])
10%: Efficacy (Poa annua (POAAN); [11])

Cc1nnc(NC(=O)c2ccc(C(F)(F)F)c(S(C)(=O)=O)c2Cl)o1 [A1-36]
25%: Efficacy (Galium aparine (GALAP); [12]) | Efficacy (Galium aparine (GALAP); [19]) | Efficacy (Galium aparine (GALAP); [20])
50%: Efficacy (Eleusine indica (ELEIN); [16]) | Efficacy (Solanum nigrum (SOLNI); [17])
40%: Efficacy [3, 12] | Efficacy [4, 16]
0%: Efficacy (Galium aparine (GALAP); [18]) | Efficacy [1, 19] | Efficacy [3, 18] | Efficacy [3, 22] | Efficacy [4, 21] | Efficacy (Bromus sterilis (BROST); [11]) | Efficacy [6, 11] | Efficacy (Avena fatua (AVEFA); [11]) | Efficacy (Phalaris minor (PHAMI); [11])
15%: Efficacy [3, 11] | Efficacy [3, 19] | Efficacy [3, 20] | Efficacy (Avena fatua (AVEFA); [12]) | Efficacy (Avena fatua (AVEFA); [19]) | Efficacy (Avena fatua (AVEFA); [20])
30%: Efficacy (Eleusine indica (ELEIN); [17]) | Efficacy (Phalaris minor (PHAMI); [12])
70%: Efficacy [2, 17]
10%: Efficacy [4, 23] | Efficacy (DIGSA; [23]) | Efficacy (DIGSA; [21]) | Efficacy (Avena fatua (AVEFA); [18]) | Efficacy (Avena fatua (AVEFA); [22])
65%: Efficacy (Setaria viridis (SETVI); [17])
5%: Efficacy (Galium aparine (GALAP); [11]) | Efficacy (Bromus sterilis (BROST); [18]) | Efficacy (Bromus sterilis (BROST); [22])
3%: Efficacy [1, 12] | Efficacy [6, 19] | Efficacy [6, 20]
20%: Efficacy [2, 21] | Efficacy [4, 17] | Efficacy (Phalaris minor (PHAMI); [19])

N#Cc1cc(Br)c(O)c(Br)c1 [bromoxynil]
40%: Efficacy [2, 24]
0%: pest or weed control at 100 g/ha (Eleusine indica (ELEIN); Eleusine indica, post-emergence, 336 h, 14 days after application, 100 g of a.i./ha) | pest or weed control at 400 g/ha (Eleusine indica (ELEIN); Eleusine indica, post-emergence, 336 h, 14 days after application, 400 g of a.i./ha) | Efficacy [4, 25] | Efficacy [4, 24] | Efficacy [4, 26] | Efficacy (DIGSA; [25]) | Efficacy (DIGSA; [24]) | Efficacy (DIGSA; [27]) | Efficacy (DIGSA; [26]) | Efficacy (Setaria viridis (SETVI); [25]) | Efficacy (Setaria viridis (SETVI); [24]) | Efficacy (Setaria viridis (SETVI); [27]) | Efficacy (Setaria viridis (SETVI); [26])
75%: Efficacy [5, 26]
85%: Efficacy [5, 25]

CS(=O)(=O)c1cc(C(F)(F)F)ccc1C(=O)c1cnoc1C1CC1 [isoxaflutole]
20%: pest or weed control at […] (Eleusine indica (ELEIN); [28]) | pest or weed control at 10 g/ha (Eleusine indica (ELEIN); [29])
40%: Efficacy [2, 31]
60%: pest or weed control at 10 g/ha (Eleusine indica (ELEIN); [28]) | Efficacy [4, 12] | Efficacy [4, 30]
65%: Efficacy (Solanum nigrum (SOLNI); [30])
10%: Efficacy [4, 11] | Efficacy [4, 31] | Efficacy (DIGSA; [12])
0%: pest or weed control at […] (Eleusine indica (ELEIN); [29]) | Efficacy (DIGSA; [30]) | Efficacy (Setaria viridis (SETVI); [31]) | Efficacy (Setaria viridis (SETVI); [30])

O=c1[nH]c2c(c(=O)n1C1CCCCC1)CCC2 [lenacil]
0%: pest or weed control at 300 g/ha (Eleusine indica (ELEIN); [32]) | pest or weed control at 1200 g/ha (Eleusine indica (ELEIN); [32]) | pest or weed control at 300 g/ha (Eleusine indica (ELEIN); [33]) | pest or weed control at 1200 g/ha (Eleusine indica (ELEIN); [33]) | Efficacy (Solanum nigrum (SOLNI); [34]) | Efficacy (Solanum nigrum (SOLNI); [35]) | Efficacy (Solanum nigrum (SOLNI); [36]) | Efficacy (Solanum nigrum (SOLNI); [37]) | Efficacy [2, 35] | Efficacy [2, 36] | Efficacy [2, 37] | Efficacy [4, 34] | Efficacy [4, 35] | Efficacy [4, 36] | Efficacy [4, 37] | Efficacy (DIGSA; [34]) | Efficacy (DIGSA; [35]) | Efficacy (DIGSA; [36]) | Efficacy (DIGSA; [37]) | Efficacy (Setaria viridis (SETVI); [34]) | Efficacy (Setaria viridis (SETVI); [35]) | Efficacy (Setaria viridis (SETVI); [36]) | Efficacy (Setaria viridis (SETVI); [37])
